Assay results taken from patent US8461336B2, “Boron-containing small molecules” (Anacor Pharmaceuticals, Inc., priority 2008, dated 2013).
Where a name gives a salt, the structure may show the parent alone.

Experiments:
ROCK1 = molecular target: T1, ROCK1 (Homo sapiens, UniProt Q13464); assay: Kinase assay ROCK1 ([gamma-33P]ATP, S6 kinase peptide substrate); assay type: biochemical; conditions: 20 nM recombinant human ROCK1 catalytic domain, room temperature
T1 construct: Catalytic Domain (amino acids 1-535); GST; purchased Reaction Biology Corp., Malvern, Pa; host or cells: insect cells
T1 sequence (Q13464 1-535): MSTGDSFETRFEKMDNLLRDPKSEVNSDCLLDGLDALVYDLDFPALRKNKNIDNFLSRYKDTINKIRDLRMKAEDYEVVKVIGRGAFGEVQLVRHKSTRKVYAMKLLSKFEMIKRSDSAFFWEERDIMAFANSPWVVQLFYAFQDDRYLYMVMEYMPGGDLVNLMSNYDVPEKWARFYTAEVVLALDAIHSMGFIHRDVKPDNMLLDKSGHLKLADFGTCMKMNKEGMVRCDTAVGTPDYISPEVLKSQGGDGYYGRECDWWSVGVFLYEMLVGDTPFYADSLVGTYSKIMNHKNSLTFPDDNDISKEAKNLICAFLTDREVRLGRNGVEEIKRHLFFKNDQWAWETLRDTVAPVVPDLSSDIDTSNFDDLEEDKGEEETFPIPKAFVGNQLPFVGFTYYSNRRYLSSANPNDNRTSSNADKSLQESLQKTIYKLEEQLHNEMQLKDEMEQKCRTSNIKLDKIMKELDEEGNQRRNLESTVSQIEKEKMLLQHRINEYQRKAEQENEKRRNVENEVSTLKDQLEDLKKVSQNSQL
Protocol: (§1) The kinase assays were performed at room temperature using 20 nM ROCK1 or ROCK2 enzyme and 20 uM peptide substrate, [gamma-^33P]ATP, and drug concentration were varied. The ROCK1 enzyme is recombinant human protein, Catalytic Domain (amino acids 1-535) (Reaction Biology Corp., Malvern, Pa.), GST-tagged, expressed in insect cells. MW=[…]. The ROCK2 enzyme is recombinant human protein (amino acids 11-552), N-terminal histidine-tagged, expressed in insect cells, MW=63.3 kDa (Reaction Biology Corp., Malvern, Pa.). The substrate was a peptide derived from S6 kinase peptide for both ROCK1 & 2 assays; [[…]], Mw=3630 Da (Reaction Biology Corp., Malvern, Pa.). The reaction buffer contained 20 mM HEPES-HCl, pH 7.5, 10 mM MgCl2, 1 mM EGTA, 0.02% Brij35, 0.1 mM Na3VO4, 0.02 mg/ml BSA, 2 mM DTT, and 1% DMSO. Enzyme/substrate/drug mixture were added and incubated for 20 min to ensure compound was equilibrated and bound to the enzyme. Then concentrations of ATP were added to initiate the reaction. The activity was monitored by filter plate capture of the radioactive peptide using ion exchange filtration (P81, Whatmann) and washed extensively. The reactions were monitored every 5-15 min to obtain progress curve with time course. At each time point, radioisotope signal (“P) was converted into “uM phosphate transferred to substrate”, and was plotted against time. The initial linear slope of progress curve was obtained by linear regression. The slopes (or velocity; uM/min) were then plotted against ATP concentrations for Michaelis-Menten plot, and subsequent Lineweaver-Burk plot (double-reciprocal plot) and secondary plot, using GraphPad Prism software.

ROCK2 = molecular target: T2, ROCK2 (Homo sapiens, UniProt O75116); assay: Kinase assay ROCK2 ([gamma-33P]ATP, S6 kinase peptide substrate); assay type: biochemical; conditions: 20 nM recombinant human ROCK2, room temperature
T2 construct: recombinant human protein (amino acids 11-552); His (N); purchased Reaction Biology Corp., Malvern, Pa; host or cells: insect cells
T2 sequence (O75116 11-552): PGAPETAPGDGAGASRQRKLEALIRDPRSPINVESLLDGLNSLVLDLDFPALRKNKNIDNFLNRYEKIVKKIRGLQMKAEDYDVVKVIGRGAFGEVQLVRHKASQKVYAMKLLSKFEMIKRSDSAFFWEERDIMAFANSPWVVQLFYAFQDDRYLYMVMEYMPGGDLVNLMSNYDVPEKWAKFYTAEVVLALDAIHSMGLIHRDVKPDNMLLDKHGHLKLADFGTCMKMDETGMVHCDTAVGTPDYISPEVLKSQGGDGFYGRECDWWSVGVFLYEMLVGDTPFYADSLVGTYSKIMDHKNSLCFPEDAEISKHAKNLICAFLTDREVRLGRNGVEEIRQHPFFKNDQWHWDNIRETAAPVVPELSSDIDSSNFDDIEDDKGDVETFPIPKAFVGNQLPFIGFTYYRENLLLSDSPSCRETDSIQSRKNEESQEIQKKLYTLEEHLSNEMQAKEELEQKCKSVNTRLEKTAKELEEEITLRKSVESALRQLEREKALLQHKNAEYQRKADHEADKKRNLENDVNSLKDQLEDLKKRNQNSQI
Protocol: as §1

TNF-α = assay: Cytokine assay, LPS-induced TNF-α in human PBMC; assay type: cell-based; conditions: 1 μg/mL LPS, supernatant at 24 hours
Protocol: The ability of the compounds described herein to inhibit pro-inflammatory cytokines or phosphodiesterases were tested.
Frozen human peripheral blood mononucleocytes (PBMC) were thawed and centrifuged. Cryopreservation media was aspirated off of the cell pellet, and the cells were resuspended in fresh culture media (CM) comprising RPMI 1640 and 10% FBS in 96 well plates. Test article was dissolved in DMSO to form a 10 mM sample (DMSO, 100%). The 10 mM samples were diluted to 100 μM in CM (DMSO, 1%), then further diluted to 10, 1, 0.1, 0.01 μM in 200 μL of CM (n=3). […] IL-23 was assayed using a commercial ELISA kit (R&D Systems).

K-ATP channel = conditions: example given in the text for K-ATP channel modulation; cited from earlier work

Structure (SMILES)	melting point [°C]	IC50 (ROCK1) [µM]	IC50 (ROCK2) [µM]	IC50 (TNF-α) [µM]	pKi (K-ATP channel)
NCc1ccc(Oc2ccc3c(c2)B(O)OC3)cc1 (as salt: chloride) [(4-(1-hydroxy-1,3-dihydrobenzo[c][1,2]oxaborol-6-yloxy)phenyl)methanaminium chloride]	> 230				
NCc1ccc(Oc2ccc3c(c2)B(O)OC3)cc1 [T, (4-(1-hydroxy-1,3-dihydrobenzo[c][1,2]oxaborol-6-yloxy)phenyl)methanaminium chloride]		8.1	3.1		
NCc1cccc(Oc2ccc3c(c2)B(O)OC3)c1 [U, (3-(1-hydroxy-1,3-dihydrobenzo[c][1,2]oxaborol-6-yloxy)phenyl)methanaminium chloride]		69.5	40.2		
NCc1ccc(Oc2ccc3c(c2)COB3O)cc1 [V, (4-(1-hydroxy-1,3-dihydrobenzo[c][1,2]oxaborol-5-yloxy)phenyl)methanaminium chloride]		25.1	10.1		
NCc1ccc(Oc2ccc3c(c2)B(O)OC3)c(F)c1 [W]		2.44	0.86	0.019	
NCc1ccc(Oc2ccc3c(c2)B(O)OC3)c(Cl)c1 [X]		4.75	2.11		
N#Cc1ccc(Oc2ccc3c(c2)COB3O)nc1OC1CCCC1 [Z, 2-Cyclopentyloxy-6-(1-hydroxy-1,3-dihydro-benzo[c][1,2]oxaborol-5-yloxy)-nicotinonitrile]		18.1	9.09		
CC1=NS(=O)(=O)c2cc(Cl)ccc2N1 [diazoxide]					3.8
